According to US8796244B2, “Imidazopyridine derivatives as inhibitors of receptor tyrosine kinases” (Astex Therapeutics Ltd, priority 2008, dated 2014):
Counter-ions that a name gives are not always drawn. Like-named read-outs stand apart in the source and are kept apart here.

Columns and labels:
[1] = test system: parental wild-type Ba/F3 cells; experiment: Ba/F3 (WT) cell proliferation assay (Alamar Blue); assay type: cell-based; details: Mus musculus; for inhibition at 10 µM: BaF3, read-out: BaF3 WT prolif, % inhibition
[2] = test system: LP-1 cell line (FGF-1/Heparin induced pERK); experiment: Cell-based pERK ELISA, LP-1 cells; details: Homo sapiens, LP-1, read-out: LP-1 pERK ELISA (μM)
[3] = BaF3, 72 hours, Alamar Blue, read-out: BaF3 WT prolif
[4] = BaF3, 72 h, read-out: BaF3 WT prolif (μM)

SMILES | IC50 [1, 3] [µM] | IC50 [2] [µM] | IC50 [1, 4] [µM] | inhibition at 10 µM [1] [%]
O=C(NCC(F)(F)F)Nc1cccc(-c2cnc3cc(-c4nnc(C(F)(F)F)s4)ccn23)c1 [Example 17, 1-(2,2,2-Trifluoroethyl)-3-{3-[7-(5-trifluoromethyl[1,3,4]thiadiazol-2-yl)-imidazo[1,2-a]pyridin-3-yl]phenyl}urea] | 0.056 | 0.044 |  | 
CC(O)C#Cc1ccn2c(-c3cccc(NC(=O)NCC(F)(F)F)c3)cnc2c1 (stereo not drawn) [Example 18, 1-{3-[7-(3-Hydroxybut-1-ynyl)imidazo[1,2-a]pyridin-3-yl]phenyl}-3-(2,2,2-trifluoroethyl)urea formate] |  | 0.095 | 1.4 | 
O=C(NCC(F)(F)F)Nc1cccc(-c2cnc3cc(C#CCCO)ccn23)c1 [Example 19, 1-{3-[7-(4-Hydroxybut-1-ynyl)imidazo[1,2-a]pyridin-3-yl]phenyl}-3-(2,2,2-trifluoroethyl)urea] | 0.55 | 0.13 |  | 
Cc1ccc(-c2ccn3c(-c4cncc(NC(=O)NCC(F)(F)F)c4)cnc3c2)nn1 [Example 21, 1-{5-[7-(6-Methylpyridazin-yl)imidazo[1,2-a]pyridin-3-yl]pyridin-3-yl}-3-(2,2,2-trifluoroethyl)urea] |  | 0.41 |  | 0
O=C(NCC(F)(F)F)Nc1cccc(-c2cnc3cc(-c4nnc(CCN5CCCCC5)s4)ccn23)c1 [Example 22, 1-(3-{7-[5-(2-Piperidin-1-ylethyl)-[1,3,4]thiadiazol-2-yl]imidazo[1,2-a]pyridin-3-yl}phenyl)-3-(2,2,2-trifluoroethyl)urea hydrochloride] |  | 0.0044 | 1.1 | 
O=C(NCC(F)(F)F)Nc1cncc(-c2cnc3cc(-c4nncs4)ccn23)c1 [Example 24, 1-[5-(7-[1,3,4]Thiadiazol-2-ylimidazo[1,2-a]pyridin-3-yl)pyridin-3-yl]-3-(2,2,2-trifluoroethyl)urea hydrochloride] |  | 0.57 |  | 2.2
O=C(NCC(F)(F)F)Nc1cccc(-c2cnc3cc(C#CCO)ccn23)c1 [Example 26, 1-{3-[7-(3-Hydroxyprop-1-ynyl)imidazo[1,2-a]pyridin-3-yl]phenyl}-3-(2,2,2-trifluoroethyl)urea] | 0.77 | 0.27 |  | 
O=C(Nc1cccc(-c2cnc3cc(-c4ccc(F)cc4)ccn23)c1)NC1CC1 [Example 28, 1-Cyclopropyl-3-{3-[7-(4-fluorophenyl)imidazo[1,2-a]pyridin-3-yl]phenyl}urea] |  | 0.17 |  | 35
O=C(NCC(F)(F)F)Nc1cncc(-c2cnc3cc(C#CC4CC4)ccn23)c1 [Example 29, 1-[5-(7-Cyclopropylethynylimidazo[1,2-a]pyridin-3-yl)pyridin-3-yl]-3-(2,2,2-trifluoroethyl)urea] | 3.1 | 0.12 |  | 
O=C(NCC(F)(F)F)Nc1cccc(-c2cnc3cc(-c4cnccn4)ccn23)c1 [Example 30, 1-[3-(7-Pyrazin-2-ylimidazo[1,2-a]pyridin-3-yl)phenyl]-3-(2,2,2-trifluoroethyl)urea] | 0.13 | 0.045 |  | 
O=C(NCC(F)(F)F)Nc1cncc(-c2cnc3cc(Cl)ccn23)c1 [Example 31, 1-[5-(7-Chloroimidazo[1,2-a]pyridin-3-yl)pyridin-3-yl]-3-(2,2,2-trifluoroethyl)urea] |  | 0.82 |  | 0
O=C(NCC(F)(F)F)Nc1cccc(-c2cnc3cc(-c4ccc(Cl)nn4)ccn23)c1 [Example 33, 1-{3-[7-(6-Chloropyridazin-3-yl)-imidazo[1,2-a]pyridin-3-yl]phenyl}-3-(2,2,2-trifluoroethyl)urea] | 0.32 | 0.057 |  | 
O=C(NCC(F)(F)F)Nc1cccc(-c2cnc3cc(-c4ccncn4)ccn23)c1 [Example 34, 1-[3-(7-Pyrimidin-4-ylimidazo[1,2-a]pyridin-3-yl)phenyl]-3-(2,2,2-trifluoroethyl)urea hydrochloride] |  | 0.013 |  | 0
O=C(NCC(F)(F)F)Nc1cncc(-c2cnc3cc(-c4ncccn4)ccn23)c1 [Example 35, 1-[5-(7-Pyrimidin-2-yl-imidazo[1,2-a]pyridine-3-yl)pyridin-3-yl]-3-(2,2,2-trifluoroethyl)urea hydrochloride] |  | 0.33 |  | 0
CN(C)C1CCN(c2ccc(-c3ccn4c(-c5cccc(NC(=O)NCC(F)(F)F)c5)cnc4c3)nn2)CC1 [Example 36, 1-(3-{7-[6-(4-Dimethylaminopiperidin-1-yl)pyridazin-3-yl]imidazo[1,2-a]pyridin-3-yl}-phenyl)-3-(2,2,2-trifluoroethyl)urea hydrochloride.] |  | 0.065 |  | 0
O=C(NCC(F)(F)F)Nc1cccc(-c2cnc3cc(-c4cnn(C5CNC5)c4)ccn23)c1 [Example 37, 1-{3-[7-(1-Azetidin-3-yl-1H-pyrazol-4-yl)-imidazo[1,2-a]pyridin-3-yl]phenyl}-3-(2,2,2-trifluoroethyl)urea] |  | 0.29 |  | 3.3
O=C(NCC(F)(F)F)Nc1cccc(-c2cnc3cc(-c4cnn(C5CCCNC5)c4)ccn23)c1 (stereo not drawn) [Example 40, 1-{3-[7-(1-Piperidin-3-yl-1H-pyrazol-4-yl)-imidazo[1,2-a]pyridin-3-yl]-phenyl}-3-(2,2,2-trifluoro-ethyl)-urea formate] |  | 0.046 | 4 | 
CN1CC(n2cc(-c3ccn4c(-c5cccc(NC(=O)NCC(F)(F)F)c5)cnc4c3)cn2)C1 [Example 41, 1-(3-{7-[1-(1-Methyl-azetidin-3-yl)-1H-pyrazol-4-yl]-imidazo[1,2-a]pyridin-3-yl}-phenyl)-3-(2,2,2-trifluoro-ethyl)-urea formate] |  | 0.025 | 2.8 | 
O=C(NCC(F)(F)F)Nc1cccc(-c2cnc3cc(-c4cncnc4)ccn23)c1 [Example 42, 1-[3-(7-Pyrimidin-5-yl-imidazo[1,2-a]pyridin-3-yl)-phenyl]-3-(2,2,2-trifluoro-ethyl)-urea hydrochloride] |  | 0.27 | 1.1 | 
NC(=O)c1sccc1-c1ccn2c(-c3cccc(NC(=O)NCC(F)(F)F)c3)cnc2c1 [Example 43, 3-(3-{3-[3-(2,2,2-Trifluoroethyl)-ureido]-phenyl}-imidazo[1,2-a]pyridin-7-yl)-thiophene-2-carboxylic acid amide hydrochloride] |  | 0.35 |  | 0
O=C(NCC(F)(F)F)Nc1cccc(-c2cnc3cc(-c4cnn(C5CCNC5)c4)ccn23)c1 (stereo not drawn) [Example 45, 1-{3-[7-(1-Pyrrolidin-3-yl-1H-pyrazol-4-yl)-imidazo[1,2-a]pyridin-3-yl]-phenyl}-3-(2,2,2-trifluoro-ethyl)-urea] |  | 0.35 |  | 0
O=C(NCC(F)(F)F)Nc1cccc(-c2cnc3cc(-c4nccc(C(F)(F)F)n4)ccn23)c1 [Example 46, 1-(2,2,2-Trifluoro-ethyl)-3-{3-[7-(4-trifluoromethyl-pyrimidin-2-yl)-imidazo[1,2-a]pyridin-3-yl]-phenyl}-urea hydrochloride] |  | 0.18 |  | 27
O=C(NCC(F)(F)F)Nc1cccc(-c2cnc3cc(-c4cnn(C5CCOC5)c4)ccn23)c1 (stereo not drawn) [Example 47, 1-(3-{7-[1-(Tetrahydro-furan-3-yl)-1H-pyrazol-4-yl]-imidazo[1,2-a]pyridin-3-yl}-phenyl)-3-(2,2,2-trifluoro-ethyl)-urea hydrochloride] |  | 0.0098 | 0.68 | 
COc1cc(OC)nc(-c2ccn3c(-c4cccc(NC(=O)NCC(F)(F)F)c4)cnc3c2)n1 [Example 48, 1-{3-[7-(4,6-Dimethoxy-pyrimidin-2-yl)-imidazo[1,2-a]pyridin-3-yl]-phenyl}-3-(2,2,2-trifluoro-ethyl)-urea hydrochloride] |  | 0.13 |  | 0
O=C(NCC(F)(F)F)Nc1cccc(-c2cnc3cc(-c4ccc(N5CCCCC5)nc4)ccn23)c1 [Example 49, 1-{3-[7-(3,4,5,6-Tetrahydro-2H-[1,2′]bipyridinyl-5′-yl)-imidazo[1,2-a]pyridin-3-yl]-phenyl}-3-(2,2,2-trifluoro-ethyl)-urea hydrochloride] |  | 0.017 | 0.29 | 
COc1ccc(-c2ccn3c(-c4cccc(NC(=O)NCC(F)(F)F)c4)cnc3c2)nn1 [Example 51, 1-{3-[7-(6-Methoxy-pyridazin-3-yl)-1,7-imidazo[1,2-a]pyridin-3-yl]-phenyl}-3-(2,2,2-trifluoro-ethyl)-urea] |  | 0.015 |  | 10
O=C(NCC(F)(F)F)Nc1cccc(-c2cnc3cc(-c4ccc(=O)[nH]n4)ccn23)c1 [Example 52, 1-{3-[7-(6-Oxo-1,6-dihydropyridazin-3-yl)-imidazo[1,2-a]pyridin-3-yl]-phenyl}-3-(2,2,2-trifluoro-ethyl)-urea] |  | 0.33 |  | 51
O=C(NCC(F)(F)F)Nc1cccc(-c2cnc3cc(-c4nc5c(s4)CNCC5)ccn23)c1 [Example 53, 1-{3-[7-(4,5,6,7-Tetrahydro-thiazolo[5,4-c]pyridin-2-yl)-imidazo[1,2-a]pyridin-3-yl]-phenyl}-3-(2,2,2-trifluoroethyl)-urea formate] |  | 0.023 | 4.1 | 
Cn1cc(C#Cc2ccn3c(-c4cccc(NC(=O)NCC(F)(F)F)c4)cnc3c2)cn1 [Example 56, 1-{3-[7-(1-Methyl-1H-pyrazol-4-ylethynyl)-imidazo[1,2-a]pyridin-3-yl]-phenyl}-3-(2,2,2-trifluoro-ethyl)-urea formate] |  | 0.021 | 4.6 | 
Cc1cnc(-c2ccn3c(-c4cccc(NC(=O)NCC(F)(F)F)c4)cnc3c2)nc1 [Example 58, 1-{3-[7-(5-Methyl-pyrimidin-2-yl)-imidazo[1,2-a]pyridin-3-yl]-phenyl}-3-(2,2,2-trifluoro-ethyl)-urea hydrochloride] |  | 0.077 | 0.7 | 
